Patent US12371428B2 (Exelixis, Inc., priority 2019, dated 2025)

Key:
[1] = target: Met (phospho-Met, HGF-stimulated PC-3 prostate cancer cells) (Homo sapiens (Human), UniProt P08581); assay: Met autophosphorylation ELISA in PC-3 cells (Example F); type: cell-based; conditions: cellular activity; Met autophosphorylation ELISA in PC-3 cells; read-out: c-Met IC50
In short: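 PC-3 cells, serum-starved 3 h, were treated with compounds (8-point dose curve, 0.3% DMSO final) for 1 h, then stimulated with 100 ng/mL recombinant human HGF for 10 min. Lysate phospho-Met (panTyr) was quantified by sandwich ELISA; IC50 from 4-parameter logistic fit.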

[2] = target: Human KDR (residues K790-V1356) (Homo sapiens (Human), UniProt P35968); assay: Human KDR kinase assay, 33P-phosphoryl transfer radiometric (Example B-1, KinaseProfiler); type: biochemical; conditions: protocol of Example B-1 (compounds 21-27, 41-47, 99, 104)
Sequence of Human KDR (residues K790-V1356) (P35968 790-1356): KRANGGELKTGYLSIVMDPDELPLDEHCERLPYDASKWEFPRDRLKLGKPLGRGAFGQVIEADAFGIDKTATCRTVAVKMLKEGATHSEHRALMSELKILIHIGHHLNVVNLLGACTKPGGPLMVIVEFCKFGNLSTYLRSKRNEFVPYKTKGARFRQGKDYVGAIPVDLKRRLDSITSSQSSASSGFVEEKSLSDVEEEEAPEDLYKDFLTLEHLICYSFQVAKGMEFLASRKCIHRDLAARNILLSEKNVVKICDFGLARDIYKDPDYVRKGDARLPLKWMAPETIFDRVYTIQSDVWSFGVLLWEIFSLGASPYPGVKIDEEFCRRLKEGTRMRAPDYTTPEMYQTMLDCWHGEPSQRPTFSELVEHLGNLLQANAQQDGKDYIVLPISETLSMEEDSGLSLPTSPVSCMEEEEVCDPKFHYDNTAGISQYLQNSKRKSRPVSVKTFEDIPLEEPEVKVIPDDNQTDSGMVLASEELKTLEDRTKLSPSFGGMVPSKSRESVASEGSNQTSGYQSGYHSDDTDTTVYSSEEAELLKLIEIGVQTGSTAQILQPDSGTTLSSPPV
Experimental: (§1) Kinase activity and compound inhibition were investigated using the ^33P-Phosphoryl transfer radiometric kinase assay, performed using the KinaseProfiler™ service of Eurofins Pharma Discovery Services UK Limited. Dose-response experiments were performed using nine compound concentrations in a 96-well microtiter plate. For each assay, all compounds were prepared to a 50× final assay concentration (50 μM) in 100% DMSO, then diluted in a half-log series, with the final top concentration at 1 μM. This working stock of the compound was added to the assay well as the first component in the reaction, followed by the remaining components as detailed in the following assay protocols below. The positive control wells (100% kinase activity) contain all components of the reaction including 2% DMSO (control for solvent effects), except the compound of interest. Blank wells contain all components of the reaction, with the reference inhibitor, staurosporine. This reference compound was used to abolish kinase activity and generated the 0% kinase activity base-line. IC50 values were calculated by nonlinear regression analysis using the sigmoidal dose-response (variable slope) curve fit on XLFit version 5.3 (ID Business Solutions).
(§2) Example B-1: Human KDR (residues K790-V1356, 55 nM) was incubated with 8 mM MOPS pH 7.0, 0.2 mM EDTA, 0.33 mg/mL myelin basic protein, 10 mM magnesium acetate, and 10 μM [γ-^33P-ATP]. The reaction was initiated by the addition of the Mg/ATP mix. After incubation for 40 minutes at room temperature, the reaction was stopped by the addition of phosphoric acid to a concentration of 0.5%. A reaction aliquot of 10 μL was then spotted onto a P30 filtermat and washed four times for 4 minutes in 0.425% phosphoric acid and once in methanol prior to drying and scintillation counting. Incorporated ^33P was measured using the Wallac Microbeta scintillation counter (Perkin Elmer).

[3] = target: Human Met (residues R974-S1390 with A1209G and V1290L) (Homo sapiens, UniProt P08581); assay: Human Met kinase assay, 33P-phosphoryl transfer radiometric (Example D-1, KinaseProfiler); type: biochemical; conditions: protocol of Example D-1 (compounds 21-27, 41-47, 99, 104); read-out: c-Met IC50
Sequence of Human Met (residues R974-S1390 with A1209G and V1290L) (P08581 25-1390 limits assumed, stated change not applied): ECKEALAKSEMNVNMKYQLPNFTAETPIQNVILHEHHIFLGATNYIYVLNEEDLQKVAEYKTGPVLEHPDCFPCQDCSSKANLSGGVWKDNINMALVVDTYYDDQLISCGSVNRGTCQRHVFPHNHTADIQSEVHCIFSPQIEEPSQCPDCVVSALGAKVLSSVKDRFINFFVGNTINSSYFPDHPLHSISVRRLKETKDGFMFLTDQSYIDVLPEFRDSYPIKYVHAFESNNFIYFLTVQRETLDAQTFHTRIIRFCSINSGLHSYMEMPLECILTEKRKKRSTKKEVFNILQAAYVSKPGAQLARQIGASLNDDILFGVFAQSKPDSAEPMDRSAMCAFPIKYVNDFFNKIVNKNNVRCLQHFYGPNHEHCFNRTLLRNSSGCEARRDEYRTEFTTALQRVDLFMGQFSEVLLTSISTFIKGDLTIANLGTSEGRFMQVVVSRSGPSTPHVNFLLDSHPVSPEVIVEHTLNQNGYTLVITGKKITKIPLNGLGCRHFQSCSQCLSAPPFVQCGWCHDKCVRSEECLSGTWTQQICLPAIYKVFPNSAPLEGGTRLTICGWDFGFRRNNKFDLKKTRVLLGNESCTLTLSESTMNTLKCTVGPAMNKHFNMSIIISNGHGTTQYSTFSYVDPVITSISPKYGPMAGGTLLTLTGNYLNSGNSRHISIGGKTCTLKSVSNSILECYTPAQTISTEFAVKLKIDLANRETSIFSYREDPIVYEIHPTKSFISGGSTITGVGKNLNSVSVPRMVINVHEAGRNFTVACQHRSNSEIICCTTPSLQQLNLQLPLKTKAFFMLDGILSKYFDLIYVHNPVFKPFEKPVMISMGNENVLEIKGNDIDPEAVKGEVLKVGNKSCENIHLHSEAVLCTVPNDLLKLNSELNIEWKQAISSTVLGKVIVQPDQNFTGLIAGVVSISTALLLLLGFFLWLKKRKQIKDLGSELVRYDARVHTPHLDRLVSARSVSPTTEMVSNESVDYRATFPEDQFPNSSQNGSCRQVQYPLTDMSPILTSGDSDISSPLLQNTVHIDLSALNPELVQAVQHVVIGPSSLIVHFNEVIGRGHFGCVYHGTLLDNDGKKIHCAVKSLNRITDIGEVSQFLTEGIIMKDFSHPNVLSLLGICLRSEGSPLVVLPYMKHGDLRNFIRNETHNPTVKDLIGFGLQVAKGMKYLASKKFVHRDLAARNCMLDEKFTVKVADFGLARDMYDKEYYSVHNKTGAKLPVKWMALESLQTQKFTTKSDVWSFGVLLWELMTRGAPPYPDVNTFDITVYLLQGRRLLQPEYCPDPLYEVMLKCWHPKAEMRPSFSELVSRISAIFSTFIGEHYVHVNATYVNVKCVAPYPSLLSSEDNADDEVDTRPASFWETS
Experimental: as §1
as §2, with “D-1:” for “B-1:”, “Met” for “KDR”, “R974-S1390 with A1209G and V1290L, 3.4” for “K790-V1356, 55”, “250 µM […] (SEQ ID NO:3), 1 mM sodium orthovanadate, 5 mM […],” for “0.33 mg/mL myelin basic protein,”

[4] = target: Human MER (residues 528-999) (Homo sapiens (Human), UniProt Q12866); assay: Human Mer kinase assay, HTRF KinEase (Example C-2); type: biochemical; conditions: protocol of Example C-2
Sequence of Human MER (residues 528-999) (Q12866 528-999): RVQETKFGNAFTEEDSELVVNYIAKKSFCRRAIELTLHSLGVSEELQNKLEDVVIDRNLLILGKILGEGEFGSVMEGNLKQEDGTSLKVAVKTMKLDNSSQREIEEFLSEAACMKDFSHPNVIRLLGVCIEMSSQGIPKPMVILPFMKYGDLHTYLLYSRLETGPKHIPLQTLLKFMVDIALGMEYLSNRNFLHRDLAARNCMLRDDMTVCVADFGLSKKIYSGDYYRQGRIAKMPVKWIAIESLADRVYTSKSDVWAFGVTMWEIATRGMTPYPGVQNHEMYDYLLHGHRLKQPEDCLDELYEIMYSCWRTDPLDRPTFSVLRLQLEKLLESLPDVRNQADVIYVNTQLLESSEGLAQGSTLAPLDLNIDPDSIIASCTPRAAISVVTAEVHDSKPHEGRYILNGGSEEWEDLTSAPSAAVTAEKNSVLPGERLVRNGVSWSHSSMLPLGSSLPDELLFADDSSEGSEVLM
In short: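 IC50 values from 10 concentrations via 4-parameter logistic fit of […], with DMSO as 100% and 1 μM reference compound as 0% activity. Reaction: MER kinase domain 528-999, 1 ng/well, 40 μM ATP (Km), biotin peptide, 5 mM MgCl2, 1 mM DTT, 3% DMSO, room temperature 60 min; HTRF streptavidin-XL665/Eu-antibody detection.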

Sequence of Met (phospho-Met, HGF-stimulated PC-3 prostate cancer cells) (P08581 25-1390): as the sequence (P08581 25-1390 limits assumed, stated change not applied) above

| IC50 [1] [nM] | IC50 [2] [nM] | IC50 [3] [nM] | IC50 [4] [nM] | Structure (SMILES) |
| --- | --- | --- | --- | --- |
| < 100 | < 100 | < 100 |  | COc1cc2nccc(Oc3ccc(NC(=O)c4cn(C5CCCC5)c(C)c(-c5ccc(F)c(Cl)c5)c4=O)cc3F)c2nc1OC [Compound 27, 5-(3-Chloro-4-fluorophenyl)-1-cyclopentyl-N-[4-[(6,7-dimethoxy-1,5-naphthyridin-4-yl)oxy]-3-fluorophenyl]-6-methyl-4-oxopyridine-3-carboxamide] |
| < 100 | < 100 | < 100 |  | COc1cc2nccc(Oc3ccc(NC(=O)c4cn(C(C)C)c(C)c(-c5ccc(F)c(Cl)c5)c4=O)cc3F)c2nc1OC [Compound 24, 5-(3-Chloro-4-fluorophenyl)-N-[4-[(6,7-dimethoxy-1,5-naphthyridin-4-yl)oxy]-3-fluorophenyl]-6-methyl-4-oxo-1-propan-2-ylpyridine-3-carboxamide] |
| < 100 | < 100 | < 100 |  | CNc1ncc(C(=O)Nc2ccc(Oc3ccnc4cc(OC)c(OC)nc34)c(F)c2)c(=O)n1-c1ccc(F)cc1 [Compound 99, N-[4-[(6,7-Dimethoxy-1,5-naphthyridin-4-yl)oxy]-3-fluorophenyl]-1-(4-fluorophenyl)-2-(methylamino)-6-oxopyrimidine-5-carboxamide] |
| < 100 | < 100 | < 100 |  | COc1cc2nccc(Oc3ccc(NC(=O)c4cncc(-c5ccc(F)cc5)c4O)cc3F)c2nc1OC [Compound 42, N-[4-[(6,7-Dimethoxy-1,5-naphthyridin-4-yl)oxy]-3-fluorophenyl]-5-(4-fluorophenyl)-4-hydroxypyridine-3-carboxamide] |
| < 100 | < 100 | < 100 |  | COc1cc2nccc(Oc3ccc(NC(=O)c4cn(C(C)C)c(C)c(-c5ccc(Cl)c(Cl)c5)c4=O)cc3F)c2nc1OC [Compound 25, 5-(3,4-Dichlorophenyl)-N-[4-[(6,7-dimethoxy-1,5-naphthyridin-4-yl)oxy]-3-fluorophenyl]-6-methyl-4-oxo-1-propan-2-ylpyridine-3-carboxamide] |
| < 100 | < 100 | < 100 |  | COc1cc2nccc(Oc3ccc(NC(=O)c4cn(C5CCCC5)cc(-c5ccc(F)cc5)c4=O)cc3F)c2nc1OC [Compound 46, 1-Cyclopentyl-N-[4-[(6,7-dimethoxy-1,5-naphthyridin-4-yl)oxy]-3-fluorophenyl]-5-(4-fluorophenyl)-4-oxopyridine-3-carboxamide] |
| < 100 | < 100 | < 100 |  | COc1cc2nccc(Oc3ccc(NC(=O)c4cn(C5COC5)cc(-c5ccc(F)cc5)c4=O)cc3F)c2nc1OC [Compound 47, N-[4-[(6,7-Dimethoxy-1,5-naphthyridin-4-yl)oxy]-3-fluorophenyl]-5-(4-fluorophenyl)-1-(oxetan-3-yl)-4-oxopyridine-3-carboxamide] |
| < 100 | < 100 | < 100 |  | COc1cc2nccc(Oc3ccc(NC(=O)c4cn(C(C)C)c(C)c(-c5ccc(F)cc5)c4=O)cc3F)c2cc1OC [Compound 22, N-[4-(6,7-Dimethoxyquinolin-4-yl)oxy-3-fluorophenyl]-5-(4-fluorophenyl)-6-methyl-4-oxo-1-propan-2-ylpyridine-3-carboxamide] |
| < 100 | < 100 | < 100 |  | COc1cc2nccc(Oc3ccc(NC(=O)c4cn(C)cc(-c5ccc(F)cc5)c4=O)cc3F)c2nc1OC [Compound 45, N-[4-[(6,7-Dimethoxy-1,5-naphthyridin-4-yl)oxy]-3-fluorophenyl]-5-(4-fluorophenyl)-1-methyl-4-oxopyridine-3-carboxamide] |
| < 100 | > 300 | > 300 |  | COc1cc2nccc(Oc3ccc(NC(=O)c4c[nH]c(=S)n(-c5ccc(F)cc5)c4=O)cc3F)c2nc1OC [Compound 104, N-[4-[(6,7-Dimethoxy-1,5-naphthyridin-4-yl)oxy]-3-fluorophenyl]-3-(4-fluorophenyl)-4-oxo-2-sulfanylidene-1H-pyrimidine-5-carboxamide] |
| < 100 | < 100 | < 100 |  | COc1cc2nccc(Oc3ccc(NC(=O)c4cn(C(C)C)c(C)c(-c5ccc(F)cc5)c4=O)cc3F)c2nc1OC [Compound 21, N-[4-[(6,7-Dimethoxy-1,5-naphthyridin-4-yl)oxy]-3-fluorophenyl]-5-(4-fluorophenyl)-6-methyl-4-oxo-1-propan-2-ylpyridine-3-carboxamide] |
| < 100 | < 100 | < 100 |  | COc1cc2nccc(Oc3ccc(NC(=O)c4cn(C(C)C)cc(-c5ccc(F)cc5)c4=O)cc3F)c2nc1OC [Compound 44, N-[4-[(6,7-Dimethoxy-1,5-naphthyridin-4-yl)oxy]-3-fluorophenyl]-5-(4-fluorophenyl)-4-oxo-1-propan-2-ylpyridine-3-carboxamide] |
| < 100 | < 100 | < 100 |  | COc1cc2nccc(Oc3ccc(NC(=O)c4cn(C5CC5)cc(-c5ccc(F)cc5)c4=O)cc3F)c2nc1OC [Compound 41, 1-Cyclopropyl-N-[4-[(6,7-dimethoxy-1,5-naphthyridin-4-yl)oxy]-3-fluorophenyl]-5-(4-fluorophenyl)-4-oxopyridine-3-carboxamide] |
| < 100 |  |  | < 100 | CCc1ncc(C(=O)Nc2ccc(Oc3ccnc4cc(OC)c(OC)nc34)c(F)c2)c(O)c1-c1ccc(F)cc1 [Compound 504, N-[4-[(6,7-dimethoxy-1,5-naphthyridin-4-yl)oxy]-3-fluorophenyl]-6-ethyl-5-(4-fluorophenyl)-4-hydroxypyridine-3-carboxamide] |
| < 100 |  |  | 100 to 300 | COc1cnc2c(Oc3ccc(NC(=O)c4ccnn(-c5ccc(F)cc5C)c4=O)cc3)ccnc2c1 [Compound 530, 2-(4-fluoro-2-methylphenyl)-N-[4-[(7-methoxy-1,5-naphthyridin-4-yl)oxy]phenyl]-3-oxopyridazine-4-carboxamide] |
| < 100 | < 100 | < 100 |  | COc1cc2nccc(Oc3ccc(NC(=O)c4cn(C(C)C)cc(-c5ccc(F)cc5)c4=O)cc3F)c2cc1OC [Compound 43, N-[4-(6,7-Dimethoxyquinolin-4-yl)oxy-3-fluorophenyl]-5-(4-fluorophenyl)-4-oxo-1-propan-2-ylpyridine-3-carboxamide] |
| < 100 | < 100 | < 100 |  | COc1cc2nccc(Oc3ccc(NC(=O)c4cn(C5CCCC5)c(C)c(-c5ccc(F)cc5)c4=O)cc3F)c2nc1OC [Compound 26] |
| 100 to 300 | < 100 | < 100 |  | COc1cc2nccc(Oc3ccc(NC(=O)c4cn(C(C)C)c(C)c(-c5ccc(Cl)c(Cl)c5)c4=O)cc3F)c2cc1OC [Compound 23, 5-(3,4-Dichlorophenyl)-N-[4-(6,7-dimethoxyquinolin-4-yl)oxy-3-fluorophenyl]-6-methyl-4-oxo-1-propan-2-ylpyridine-3-carboxamide] |
